Data reported in patent US8192962B2, “Processes for detecting toxic substances” (Daikin Industries, Ltd., priority 2001, dated 2012).

System: Stress protein genes
Test: DNA chip mRNA expression in yeast, stress protein genes (Table 6)
Format: cell-based, Saccharomyces cerevisiae S288C
In short: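 S. cerevisiae S288C grown at 25° C. in YPD to log phase, then exposed 2 h to a toxicant at a growth-inhibiting, non-lethal concentration; untreated cells as control. Poly(A) mRNA reverse-transcribed with Cy3-dUTP or Cy5-dUTP, hybridized >12 h at 65° C. to whole-genome yeast DNA chip; value = fluorescence ratio treated/untreated.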

SMILES: COc1cc(CNC(=O)CCCCC=CC(C)C)ccc1O [(12), 8-methyl-N-vanillyl-6-nonenamide]
- The level of expressed mRNA in the presence of chemical substance/The level of expressed mRNA in the absence of chemical substance (yeast gene YAL005C): 1.2
- The level of expressed mRNA in the presence of chemical substance/The level of expressed mRNA in the absence of chemical substance (yeast gene YAL015C): 1.0
- The level of expressed mRNA in the presence of chemical substance/The level of expressed mRNA in the absence of chemical substance (yeast gene YBL075C): 1.1
- The level of expressed mRNA in the presence of chemical substance/The level of expressed mRNA in the absence of chemical substance (yeast gene YBL093C): 1.1
- The level of expressed mRNA in the presence of chemical substance/The level of expressed mRNA in the absence of chemical substance (yeast gene YBR044C): 0.8
- The level of expressed mRNA in the presence of chemical substance/The level of expressed mRNA in the absence of chemical substance (yeast gene YBR054W): 0.7
- The level of expressed mRNA in the presence of chemical substance/The level of expressed mRNA in the absence of chemical substance (yeast gene YBR067C): 1.0
- The level of expressed mRNA in the presence of chemical substance/The level of expressed mRNA in the absence of chemical substance (yeast gene YBR072W): 16.3
- The level of expressed mRNA in the presence of chemical substance/The level of expressed mRNA in the absence of chemical substance (yeast gene YBR126C): 1.3
- The level of expressed mRNA in the presence of chemical substance/The level of expressed mRNA in the absence of chemical substance (yeast gene YBR169C): 1.7
- The level of expressed mRNA in the presence of chemical substance/The level of expressed mRNA in the absence of chemical substance (yeast gene YCL035C): 1.5
- The level of expressed mRNA in the presence of chemical substance/The level of expressed mRNA in the absence of chemical substance (yeast gene YCR021C): 0.5
- The level of expressed mRNA in the presence of chemical substance/The level of expressed mRNA in the absence of chemical substance (yeast gene YCR060W): 1.7
- The level of expressed mRNA in the presence of chemical substance/The level of expressed mRNA in the absence of chemical substance (yeast gene YCR083W): 1.1
- The level of expressed mRNA in the presence of chemical substance/The level of expressed mRNA in the absence of chemical substance (yeast gene YDL022W): 1.2
- The level of expressed mRNA in the presence of chemical substance/The level of expressed mRNA in the absence of chemical substance (yeast gene YDL025C): 0.9
- The level of expressed mRNA in the presence of chemical substance/The level of expressed mRNA in the absence of chemical substance (yeast gene YDR033W): 1.0
- The level of expressed mRNA in the presence of chemical substance/The level of expressed mRNA in the absence of chemical substance (yeast gene YDR077W): 0.8
- The level of expressed mRNA in the presence of chemical substance/The level of expressed mRNA in the absence of chemical substance (yeast gene YDR098C): 1.3
- The level of expressed mRNA in the presence of chemical substance/The level of expressed mRNA in the absence of chemical substance (yeast gene YDR155C): 1.4
- The level of expressed mRNA in the presence of chemical substance/The level of expressed mRNA in the absence of chemical substance (yeast gene YDR258C): 1.8
- The level of expressed mRNA in the presence of chemical substance/The level of expressed mRNA in the absence of chemical substance (yeast gene YDR293C): 0.9
- The level of expressed mRNA in the presence of chemical substance/The level of expressed mRNA in the absence of chemical substance (yeast gene YDR436W): 0.9
- The level of expressed mRNA in the presence of chemical substance/The level of expressed mRNA in the absence of chemical substance (yeast gene YDR513W): 0.9
- The level of expressed mRNA in the presence of chemical substance/The level of expressed mRNA in the absence of chemical substance (yeast gene YDR519W): 1.7
- The level of expressed mRNA in the presence of chemical substance/The level of expressed mRNA in the absence of chemical substance (yeast gene YEL030W): 0.9
- The level of expressed mRNA in the presence of chemical substance/The level of expressed mRNA in the absence of chemical substance (yeast gene YEL039C): 0.6
- The level of expressed mRNA in the presence of chemical substance/The level of expressed mRNA in the absence of chemical substance (yeast gene YER042W): 1.1
- The level of expressed mRNA in the presence of chemical substance/The level of expressed mRNA in the absence of chemical substance (yeast gene YER057C): 1.5
- The level of expressed mRNA in the presence of chemical substance/The level of expressed mRNA in the absence of chemical substance (yeast gene YER103W): 1.9
- The level of expressed mRNA in the presence of chemical substance/The level of expressed mRNA in the absence of chemical substance (yeast gene YER125W): 0.7
- The level of expressed mRNA in the presence of chemical substance/The level of expressed mRNA in the absence of chemical substance (yeast gene YFL014W): 4.3
- The level of expressed mRNA in the presence of chemical substance/The level of expressed mRNA in the absence of chemical substance (yeast gene YFL016C): 1.0
- The level of expressed mRNA in the presence of chemical substance/The level of expressed mRNA in the absence of chemical substance (yeast gene YFL020C): 1.3
- The level of expressed mRNA in the presence of chemical substance/The level of expressed mRNA in the absence of chemical substance (yeast gene YFR052W): 1.8
- The level of expressed mRNA in the presence of chemical substance/The level of expressed mRNA in the absence of chemical substance (yeast gene YGL073W): 0.8
- The level of expressed mRNA in the presence of chemical substance/The level of expressed mRNA in the absence of chemical substance (yeast gene YGL115W): 0.9
- The level of expressed mRNA in the presence of chemical substance/The level of expressed mRNA in the absence of chemical substance (yeast gene YGL181W): 1.0
- The level of expressed mRNA in the presence of chemical substance/The level of expressed mRNA in the absence of chemical substance (yeast gene YGR088W): 1.1
- The level of expressed mRNA in the presence of chemical substance/The level of expressed mRNA in the absence of chemical substance (yeast gene YHL028W): 1.5
- The level of expressed mRNA in the presence of chemical substance/The level of expressed mRNA in the absence of chemical substance (yeast gene YHL046C): 1.1
- The level of expressed mRNA in the presence of chemical substance/The level of expressed mRNA in the absence of chemical substance (yeast gene YHR030C): 0.7
- The level of expressed mRNA in the presence of chemical substance/The level of expressed mRNA in the absence of chemical substance (yeast gene YHR057C): 1.1
- The level of expressed mRNA in the presence of chemical substance/The level of expressed mRNA in the absence of chemical substance (yeast gene YHR104W): 1.0
- The level of expressed mRNA in the presence of chemical substance/The level of expressed mRNA in the absence of chemical substance (yeast gene YIL011W): 0.6
- The level of expressed mRNA in the presence of chemical substance/The level of expressed mRNA in the absence of chemical substance (yeast gene YIL033C): 1.1
- The level of expressed mRNA in the presence of chemical substance/The level of expressed mRNA in the absence of chemical substance (yeast gene YIR037W): 1.3
- The level of expressed mRNA in the presence of chemical substance/The level of expressed mRNA in the absence of chemical substance (yeast gene YIR038C): 1.1
- The level of expressed mRNA in the presence of chemical substance/The level of expressed mRNA in the absence of chemical substance (yeast gene YJL128C): 1.0
- The level of expressed mRNA in the presence of chemical substance/The level of expressed mRNA in the absence of chemical substance (yeast gene YJL158C): 1.1
- The level of expressed mRNA in the presence of chemical substance/The level of expressed mRNA in the absence of chemical substance (yeast gene YJL159W): 1.0
- The level of expressed mRNA in the presence of chemical substance/The level of expressed mRNA in the absence of chemical substance (yeast gene YJL165C): 0.9
- The level of expressed mRNA in the presence of chemical substance/The level of expressed mRNA in the absence of chemical substance (yeast gene YJR045C): 1.0
- The level of expressed mRNA in the presence of chemical substance/The level of expressed mRNA in the absence of chemical substance (yeast gene YJR090C): 0.8
- The level of expressed mRNA in the presence of chemical substance/The level of expressed mRNA in the absence of chemical substance (yeast gene YKL161C): 0.9
- The level of expressed mRNA in the presence of chemical substance/The level of expressed mRNA in the absence of chemical substance (yeast gene YKL163W): 0.9
- The level of expressed mRNA in the presence of chemical substance/The level of expressed mRNA in the absence of chemical substance (yeast gene YKL164C): 0.8
- The level of expressed mRNA in the presence of chemical substance/The level of expressed mRNA in the absence of chemical substance (yeast gene YKL210W): 1.3
- The level of expressed mRNA in the presence of chemical substance/The level of expressed mRNA in the absence of chemical substance (yeast gene YKR053C): 0.7
- The level of expressed mRNA in the presence of chemical substance/The level of expressed mRNA in the absence of chemical substance (yeast gene YLL024C): 1.0
- The level of expressed mRNA in the presence of chemical substance/The level of expressed mRNA in the absence of chemical substance (yeast gene YLL026W): 1.9
- The level of expressed mRNA in the presence of chemical substance/The level of expressed mRNA in the absence of chemical substance (yeast gene YLL039C): 1.0
- The level of expressed mRNA in the presence of chemical substance/The level of expressed mRNA in the absence of chemical substance (yeast gene YLL060C): 1.1
- The level of expressed mRNA in the presence of chemical substance/The level of expressed mRNA in the absence of chemical substance (yeast gene YLR006C): 0.7
- The level of expressed mRNA in the presence of chemical substance/The level of expressed mRNA in the absence of chemical substance (yeast gene YLR109W): 1.6
- The level of expressed mRNA in the presence of chemical substance/The level of expressed mRNA in the absence of chemical substance (yeast gene YLR259C): 0.7
- The level of expressed mRNA in the presence of chemical substance/The level of expressed mRNA in the absence of chemical substance (yeast gene YML007W): 1.1
- The level of expressed mRNA in the presence of chemical substance/The level of expressed mRNA in the absence of chemical substance (yeast gene YML070W): 1.3
- The level of expressed mRNA in the presence of chemical substance/The level of expressed mRNA in the absence of chemical substance (yeast gene YMR021C): 0.8
- The level of expressed mRNA in the presence of chemical substance/The level of expressed mRNA in the absence of chemical substance (yeast gene YMR173W): 1.4
- The level of expressed mRNA in the presence of chemical substance/The level of expressed mRNA in the absence of chemical substance (yeast gene YMR186W): 1.0
- The level of expressed mRNA in the presence of chemical substance/The level of expressed mRNA in the absence of chemical substance (yeast gene YNL064C): 0.8
- The level of expressed mRNA in the presence of chemical substance/The level of expressed mRNA in the absence of chemical substance (yeast gene YNL160W): 1.4
- The level of expressed mRNA in the presence of chemical substance/The level of expressed mRNA in the absence of chemical substance (yeast gene YNL241C): 2.0
- The level of expressed mRNA in the presence of chemical substance/The level of expressed mRNA in the absence of chemical substance (yeast gene YNR076W): 0.7
- The level of expressed mRNA in the presence of chemical substance/The level of expressed mRNA in the absence of chemical substance (yeast gene YOL064C): 0.9
- The level of expressed mRNA in the presence of chemical substance/The level of expressed mRNA in the absence of chemical substance (yeast gene YOL161C): 1.3
- The level of expressed mRNA in the presence of chemical substance/The level of expressed mRNA in the absence of chemical substance (yeast gene YOR008C): 0.7
- The level of expressed mRNA in the presence of chemical substance/The level of expressed mRNA in the absence of chemical substance (yeast gene YOR009W): 0.4
- The level of expressed mRNA in the presence of chemical substance/The level of expressed mRNA in the absence of chemical substance (yeast gene YOR010C): 0.5
- The level of expressed mRNA in the presence of chemical substance/The level of expressed mRNA in the absence of chemical substance (yeast gene YOR027W): 1.3
- The level of expressed mRNA in the presence of chemical substance/The level of expressed mRNA in the absence of chemical substance (yeast gene YOR208W): 1.2
- The level of expressed mRNA in the presence of chemical substance/The level of expressed mRNA in the absence of chemical substance (yeast gene YPL059W): 0.8
- The level of expressed mRNA in the presence of chemical substance/The level of expressed mRNA in the absence of chemical substance (yeast gene YPL106C): 1.1
- The level of expressed mRNA in the presence of chemical substance/The level of expressed mRNA in the absence of chemical substance (yeast gene YPL140C): 0.8
- The level of expressed mRNA in the presence of chemical substance/The level of expressed mRNA in the absence of chemical substance (yeast gene YPL194W): 0.9
- The level of expressed mRNA in the presence of chemical substance/The level of expressed mRNA in the absence of chemical substance (yeast gene YPL223C): 0.9
- The level of expressed mRNA in the presence of chemical substance/The level of expressed mRNA in the absence of chemical substance (yeast gene YPL240C): 0.8
- The level of expressed mRNA in the presence of chemical substance/The level of expressed mRNA in the absence of chemical substance (yeast gene YPR005C): 0.6
- The level of expressed mRNA in the presence of chemical substance/The level of expressed mRNA in the absence of chemical substance (yeast gene YPR026W): 1.2
